{
  "source": "patent US5126057A",
  "about": "“Disinfecting with N,N'-dihaloimidazolidin-4-ones” (Auburn Research Foundation, priority 1991, dated 1992)",
  "key": {"[1]": {"details": "cited from earlier work"}, "[2]": {"experiment": "Stability of unhalogenated 2,2,5,5-tetramethylimidazolidin-4-one in water exposed to direct sunlight", "type": "physicochemical", "procedure": "A solution containing 142 milligrams (1.00×10^-3 moles) of 2,2,5,5-tetramethylimidazolidin-4-one (Compound 6) in 1.0 liter of demand-free water buffered to pH 7.0 was prepared. 100 milliliter samples (1.00×10^-4 moles of Compound 6) of this solution were placed in each of five 100 milliliter volumetric flasks. The flasks were sealed with ground glass stoppers and placed in direct sunlight on the roof of the chemistry building at Auburn University during the period Jul. 6, 1989 to Aug. 2, 1989. No effort was made to control the temperature in this experiment; it was typically 33° C. during this period. […]\nAfter allowing the reaction of Compound 6 with free chlorine to form a mixture of 1,3-dichloro-2,2,5,5-tetramethylimidazolidin-4-one (Compound 1) and 1-chloro-2,2,5,5-tetramethylimidazolidin-4-one (Compound 3) to proceed with stirring over a period of 1 hour, aliquots were analyzed for total and free chlorine using the DPD-FAS procedure mentioned in example 8. The combined chlorine concentration was assumed to be the difference between the determined total and free chlorine concentrations, and to represent the amounts of compounds 1 and 3 forming during the reaction."}, "[3]": {"experiment": "Hydrolysis equilibrium constant in demand-free water", "type": "physicochemical", "details": "pH 7.0, 24°±1° C.", "procedure": "The equilibrium constant for the hydrolysis reaction of 1,3-dichloro-2,2,5,5-tetramethylimidazolidin-4-one to form 1-chloro-2,2,5,5-tetramethylimidazolidin-4-one and free chlorine (Cl^+) was determined at pH 7.0 and 24°±1° C. This was accomplished by preparing a solution of the 1,3-dichloro-2,2,5,5-tetramethylimidazolidin-4-one in demand-free 0.05 molar sodium phosphate buffer (pH 7.0) and allowing the solution to equilibrate while stirring for 1 hour. Then the DPD/FAS technique (as in example 7) was used to determine the free and total chlorine concentrations in the equilibrated solution. The concentration of combined 1,3-dichloro-2,2,5,5-tetramethylimidazolidin-4-one was calculated from the difference between the measured total and free chlorine concentrations. The hydrolysis equilibrium constant was then calculated as the square of the molar free chlorine concentration divided by the molar combined chlorine concentration. For a starting molar total chlorine concentration of 4.441×10^-3 moles per liter, at equilibrium the combined chlorine concentration was 4.428×10^-3 moles per liter, and the free chlorine concentration was 1.269×10^-5 moles per liter. […] For a starting molar total chlorine concentration of 1.764×10^-3 moles per liter, at equilibrium the combined chlorine concentration was 1.759×10^-3 moles per liter, and the free chlorine concentration was 5.360×10^-6 moles per liter. […] The average equilibrium constant for the two separate determinations was thus 2.6±1.0×10^-8."}, "physchem": {"experiment": "physchem", "type": "physicochemical", "procedure": "In method (a) 47.4 grams (0.3 mole) of 2,2,5,5-tetramethylimidazolidine-4-thione was dissolved in 1.2 liters of 3 Normal sodium hydroxide solution (3.6 moles) in a 2 liter flask. The flask and its contents were cooled to 5° C. using an ice bath, and chlorine gas was bubbled into the mixture while stirring until the pH of the solution reached 7.0. The temperature of the mixture was not allowed to rise above 10° C. during this process. The N,N'-dichloroimidazolidin-4-one product precipitated as a white solid. Following addition of 800 milliliters of water to the flask, the solid product was recovered by suction filtration. The product was then purified by dissolving it in hexane, allowing the impurities and remaining water to settle, and recovery by evaporation of the volatile hexane layer which was separated from the impurity/water layer. The product yield was 53.9 grams or 85% of that theoretically expected. Elemental analysis of the product (1,3-dichloro-2,2,5,5-tetramethylimidazolidin-4-one) gave the following results: (calculated/found) % carbon 39.82/39.86, % hydrogen 5.73/5.50, % nitrogen 13.27/13.24, and % chlorine 33.59/32.88. […] Analysis of the product by proton NMR and infrared spectroscopy yielded the following results:\n5.1 Grams (0.036 mole) of 2,2,5,5-tetramethylimidazolidin-4-one prepared as in example 2 was dissolved in 88 milliliters of 1 Normal sodium hydroxide solution (0.088 mole) in a 250 milliliter flask. While maintaining this mixture at 10° C. or below using an ice bath and stirring, 12.8 grams (0.08 mole) of liquid bromine was added dropwise. The product 1,3-dibromo-2,2,5,5-tetramethylimidazolidin-4-one precipitated from the mixture as a pale yellow solid. The product was recovered by suction filtration and purified by recrystallization from hexane. The product yield was 9.2 grams or 85% of that theoretically expected. Elemental analysis of the product (1,3-dibromo-2,2,5,5-tetramethylimidazolidin-4-one) gave the following results: (calculated/found) % carbon 28.00/27.80, % hydrogen 4.00/4.07, % nitrogen 9.33/9.39, and % bromine 53.33/52.09. […] Analysis of the product by proton NMR and infrared spectroscopy yielded the following results:\n6.4 Grams (0.045 mole) of 2,2,5,5-tetramethylimidazolidin-4-one prepared as in example 2 was dissolved in 55 milliliters of 1 Normal sodium hydroxide solution (0.055 mole) in a 250 milliliter flask. While maintaining the reaction mixture at a temperature of 5°-10° C. by use of an ice bath and stirring, 4.0 grams (0.025 mole) of liquid bromine was added dropwise. The reaction mixture was stirred at ice bath temperature for an additional 1 hour and then for 1-2 hours at cold water bath conditions (10°-20° C.). Following cooling the mixture below 10° C. again, 50 milliliters of 1 Normal sodium hydroxide solution (0.05 mole) was added, and chlorine gas was bubbled in while stirring at 5°-10° C. until the pH reached 6-7. The 1-bromo-3-chloro-2,2,5,5-tetramethylimidazolidin-4-one product precipitated as a white solid. The product was recovered by suction filtration and purified by recrystallization from hexane. The product yield was 11.2 grams or 97% of that theoretically expected. Elemental analysis of the product gave the following results: (calculated/found) % carbon 32.88/32.68, % hydrogen 4.70/4.74, % nitrogen 10.96/10.83, % bromine 31.31/33.37, % chlorine 13.89/12.67. The rather high and low found values as compared to the theoretical values for bromine and chlorine, respectively, indicate that the product was contaminated with a small amount of 1,3-dibromo-2,2,5,5-tetramethylimidazolidin-4-one. […] Analysis of the product by proton NMR and infrared spectroscopy yielded the following results: […]"}, "[4]": {"experiment": "Formation of N-halogenated imidazolidin-4-ones in situ (loss of free chlorine, DPD/FAS)", "type": "physicochemical", "details": "for reaction with free chlorine: pH 7.0, 24°±1° C.", "procedure": "An aqueous solution containing 50.0 milligrams (3.52×10^-4 moles) of 2,2,5,5-tetramethylimidazolidin-4-one synthesized as in example 2 in 50.0 milliliters of 0.05 molar sodium phosphate buffer (pH 7.0) was prepared. The buffer solution had been made halogen demand-free by chlorination with 3 milligrams per liter total chlorine from sodium hypochlorite followed by exposure to direct sunlight for two days until no titratable chlorine remained. A halogen demand-free solution of free chlorine buffered to pH 7.0 was prepared by bubbling chlorine gas into a flask containing the demand-free buffered water. Then 19 milliliters of the solution containing 1.31 grams per liter of free chlorine (7.02×10^-4 moles of positive halogen) was added to the solution containing the 2,2,5,5-tetramethylimidazolidin-4-one at ambient temperature (24°±1° C.) while stirring.\nThe reaction rate for formation of 1,3-dichloro-2,2,5,5-tetramethylimidazolidin-4-one and/or 1-chloro-2,2,5,5-tetramethylimidazolidin-4-one in situ was then followed kinetically by observing the loss of free chlorine concentration from the reaction mixture as a function of time. The concentration of free chlorine was monitored by withdrawing aliquots from the mixture periodically and titrating them by the DPD/FAS (N,N-diethyl-p-phenylenediamine/ferrous ammonium sulfate) method as described in \"Standard Methods for the Examination of Water and Wastewater, 16th edition, American Public Health Association, Washington, D. C., 1985, pp. 306-309. The moles of free chlorine present in the reaction mixture declined from 7.02×10^-4 at the time of mixing to 4.45×10^-5 after only 48 seconds representing 94% reaction. Then further declination of free chlorine occurred to 3.63×10^-5 moles after 2.87 minutes, 3.48×10^-5 moles after 6.07 minutes, and 3.32×10^-5 moles after 114.6 minutes. Thus after 114.6 minutes 95% of the reaction had occurred. At this time 1.76×10^-5 additional moles of 2,2,5,5-tetramethylimidazolidin-4-one was added, and the concentration of free chlorine declined to zero by 140 minutes total elapsed time."}, "[5]": {"details": "starting total chlorine 1.764×10^-3 moles per liter"}, "[6]": {"details": "starting total chlorine 4.441×10^-3 moles per liter"}},
  "note": "Read-outs that look alike come from different tables or passages of the source.",
  "data": [
    {"smiles": "CC1(C)COC(=O)N1Cl", "note": "[3-chloro-4,4-dimethyl-2-oxazolidinone]", "values": [
      {"measurement": "hydrolysis equilibrium constant", "setting": "[1]; reported by Williams, Elder and Worley, 1988", "result": "2.3×10^-9"}
    ]},
    {"smiles": "CC1(C)NC(=O)C(C)(C)N1", "note": "[Compound 6, 2,2,5,5-tetramethylimidazolidin-4-one]", "values": [
      {"measurement": "variation of combined chlorine concentration", "setting": "[2]; 4 weeks direct sunlight, DFW pH 7.0, typically 33° C., then reacted with free chlorine", "result": "≤ 6", "unit": "%"},
      {"measurement": "time for which stable in direct sunlight", "setting": "[2]; DFW, pH 7.0, direct sunlight", "result": "at least 4 weeks"}
    ]},
    {"smiles": "CC1(C)C(=O)N(Cl)C(C)(C)N1Cl", "note": "[1,3-dichloro-2,2,5,5-tetramethylimidazolidin-4-one]", "values": [
      {"measurement": "average hydrolysis equilibrium constant", "setting": "[3]; average of two determinations", "result": "2.6±1.0×10^-8"},
      {"measurement": "combined chlorine concentration at equilibrium", "setting": "[3]; [5]", "result": "1.759×10^-3 moles per liter"},
      {"measurement": "free chlorine concentration at equilibrium", "setting": "[3]; [5]", "result": "5.360×10^-6 moles per liter"},
      {"measurement": "hydrolysis equilibrium constant", "setting": "[3]; [5]", "result": "1.63×10^-8"},
      {"measurement": "combined chlorine concentration at equilibrium", "setting": "[3]; [6]", "result": "4.428×10^-3 moles per liter"},
      {"measurement": "free chlorine concentration at equilibrium", "setting": "[3]; [6]", "result": "1.269×10^-5 moles per liter"},
      {"measurement": "hydrolysis equilibrium constant", "setting": "[3]; [6]", "result": "3.64×10^-8"},
      {"measurement": "solubility in water", "setting": "physchem", "result": "0.224 grams in 100 milliliters of water"},
      {"measurement": "solubility", "setting": "physchem; water, solubility in water", "result": 1380, "unit": "µg/mL"}
    ]},
    {"smiles": "O=c1n(Cl)c(=O)n(Cl)c(=O)n1Cl", "note": "[trichloroisocyanuric acid]", "values": [
      {"measurement": "hydrolysis equilibrium constant", "setting": "[1]; reported by G. D. Nelson, Kirk-Othmer 1979", "result": "1.6×10^-4"}
    ]},
    {"smiles": "CC1(C)NC(=O)C(C)(C)N1", "note": "[2,2,5,5-tetramethylimidazolidin-4-one]", "values": [
      {"measurement": "reaction with free chlorine", "setting": "[4]; 48 seconds", "result": 94, "unit": "%"},
      {"measurement": "reaction with free chlorine", "setting": "[4]; 114.6 minutes", "result": 95, "unit": "%"},
      {"measurement": "time for in situ formation of halogenated imidazolidin-4-ones", "setting": "[4]; free chlorine added to pH 7.0 demand-free water", "result": "less than 1 minute"}
    ]}
  ]
}
